Laboratory results as given in paper PMC9011347, “Small-Molecule Inhibitors Targeting Lipolysis in Human Adipocytes” (Journal of the American Chemical Society, 2022).

Tested on: primary human adipocytes
Assay: Lipolysis in primary human adipocytes
Type: cell-based
Experimental: Figure 3 NG-497 inhibits lipolysis in human SGBS and primary human adipocytes. SGBS adipocytes were preincubated with NG-497 for 1 h at the indicated concentrations. Subsequently, lipolysis was stimulated with isoproterenol (1 μM) and (a) FA and (b) glycerol release was determined after 1 h using commercial kits. (c) Dose-dependent inhibition of isoproterenol-stimulated FA release from SGBS adipocytes by the HSL inhibitor 76-068 (HSLi). […] (e) DAG accumulation in SGBS adipocytes was analyzed by thin-layer chromatography (TLC) following 1 h incubation with HSLi (25 μM), NG-497 (40 μM), and a combination of both inhibitors. […] Subsequently, basal and Forskolin (5 μM)-stimulated release of radioactivity was determined via liquid scintillation over a period of 2 h in the presence or absence of NG-497 (40 μM). FA release was calculated based on FA concentrations in conditioned media after 2 h as determined using a commercial kit. […] Subsequently, the medium was changed and FA release was monitored over a period of 3 h under the indicated conditions. […] Statistical significance was determined via ANOVA followed by Bonferroni post hoc test (^#p < 0.05; ^##p < 0.01; ^###p < 0.001). […]
Released free fatty acids were quantified via NEFA C kit (Fujifilm Wako Chemicals, Neuss, Germany) and release of p-nitrophenol was measured at 405 nm. […]

CCOc1ccc(-c2cc(OC)cc(C(=O)OC(C)C)n2)cc1 [NG-497]
activity at 40 µM (Homo sapiens, Adipocyte, primary adipocytes, 1 h preincubation with NG-497 40 μM, within the third hour after pretreatment, read-out: lipolytic activity regained after inhibitor removal): ~40%
Forskolin-induced FA release (primary human adipocytes, NG-497 40 μM, Forskolin 5 μM, 2 h, [9,10-3H] oleic acid label): diminished Forskolin-induced FA release to basal level
